Laboratory results taken from US8563542B2 (Cyclacel Limited, priority 2007, dated 2013).

Tests used:
PLK1 = PLK1 (Homo sapiens, UniProt P53350); assay: PLK1 protein kinase assay (CDC25C phosphorylation, [γ-32P]-ATP); type: biochemical; conditions: Table 2, PLK1 IC50; class symbols; read-out: PLK1 IC50
AA = target: T1, AA (Homo sapiens, UniProt O14965); assay: AA IC50 (Table 1; no method given); type: biochemical; conditions: Table 2, AurA IC50; class symbols; read-out: AurA IC50
T1 sequence (O14965 1-403): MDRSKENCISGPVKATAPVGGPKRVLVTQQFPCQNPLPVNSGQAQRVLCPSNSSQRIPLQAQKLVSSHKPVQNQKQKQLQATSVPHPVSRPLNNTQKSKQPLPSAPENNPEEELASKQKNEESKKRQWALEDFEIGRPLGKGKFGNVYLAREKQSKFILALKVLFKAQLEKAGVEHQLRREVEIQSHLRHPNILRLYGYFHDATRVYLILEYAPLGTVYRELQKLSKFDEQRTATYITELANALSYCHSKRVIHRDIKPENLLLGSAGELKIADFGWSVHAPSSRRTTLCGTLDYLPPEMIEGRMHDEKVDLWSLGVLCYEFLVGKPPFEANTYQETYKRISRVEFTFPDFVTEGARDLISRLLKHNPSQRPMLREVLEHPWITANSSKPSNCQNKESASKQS

Sequence of PLK1 (P53350 whole entry): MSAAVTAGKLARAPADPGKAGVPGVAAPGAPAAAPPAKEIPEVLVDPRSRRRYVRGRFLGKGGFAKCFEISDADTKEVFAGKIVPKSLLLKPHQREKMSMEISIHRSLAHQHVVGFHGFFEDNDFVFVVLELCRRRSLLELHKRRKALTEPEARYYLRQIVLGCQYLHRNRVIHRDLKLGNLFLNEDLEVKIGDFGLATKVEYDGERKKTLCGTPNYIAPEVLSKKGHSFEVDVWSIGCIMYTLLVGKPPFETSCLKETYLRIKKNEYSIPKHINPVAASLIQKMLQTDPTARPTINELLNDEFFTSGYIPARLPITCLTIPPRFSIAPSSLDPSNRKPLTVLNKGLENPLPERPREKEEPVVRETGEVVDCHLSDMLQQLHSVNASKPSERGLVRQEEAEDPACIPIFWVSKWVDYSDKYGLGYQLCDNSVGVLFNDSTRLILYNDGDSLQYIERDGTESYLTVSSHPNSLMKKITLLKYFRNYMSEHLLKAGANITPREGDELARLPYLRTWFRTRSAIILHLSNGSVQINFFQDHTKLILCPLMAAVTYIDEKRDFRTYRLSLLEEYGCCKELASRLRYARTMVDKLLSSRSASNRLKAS

SMILES: CN1C(=O)CCN(C2CCCC2)c2nc(Nc3ccccc3)ncc21 [compound 70, 9-Cyclopentyl-5-methyl-2-phenylamino-5,7,8,9-tetrahydro-pyrimido[4,5-b][1,4]diazepin-6-one]
- IC50 (PLK1): < 10000 nM
- IC50 (AA): < 1000 nM

SMILES: CCC1CN(C2CCCC2)c2nc(Nc3ccc4c(c3)CS(=O)(=O)C4)ncc2N(C)C1=O (stereo not drawn) [compound 74, 9-Cyclopentyl-2-(2,2-dioxo-2,3-dihydro-1H-2lambda*6*-benzo[c]thiophen-5-ylamino)-7-ethyl-5-methyl-5,7,8,9-tetrahydro-pyrimido[4,5-b][1,4]diazepin-6-one]
- IC50 (PLK1): < 1000 nM
- IC50 (AA): < 100 nM

SMILES: CC1CN(C2CCCC2)c2nc(Nc3ccc4c(c3)CS(=O)(=O)C4)ncc2N(C)C1=O (stereo not drawn) [compound 76, 9-Cyclopentyl-2-(2,2-dioxo-2,3-dihydro-1H-2lambda*6*-benzo[c]thiophen-5-ylamino)-5,7-dimethyl-5,7,8,9-tetrahydro-pyrimido[4,5-b][1,4]diazepin-6-one]
- IC50 (PLK1): < 1000 nM
- IC50 (AA): < 100 nM

SMILES: CN1C(=O)C(C)(C)CN(C2CCCC2)c2nc(Nc3ccc4c(c3)CS(=O)(=O)C4)ncc21 [compound 77, 9-Cyclopentyl-2-(2,2-dioxo-2,3-dihydro-1H-2lambda*6*-benzo[c]thiophen-5-ylamino)-5,7,7-trimethyl-5,7,8,9-tetrahydro-pyrimido[4,5-b][1,4]diazepin-6-one]
- IC50 (PLK1): < 1000 nM
- IC50 (AA): < 1000 nM

SMILES: CN1C(=O)C2(CC2)CN(C2CCCC2)c2nc(Nc3ccc4c(c3)CS(=O)(=O)C4)ncc21 [compound 78, (9-Cyclopentyl-2-(2,2-dioxo-2,3-dihydro-1H-2lambda*6*-benzo[c]thiophen-5-ylamino)5-methyl-6-oxo-6,7,8,9-tetrahydro-5H-spiro[pyrimido[4,5-b][1,4]diazepin-3,1′-cyclopropane]]
- IC50 (PLK1): < 1000 nM
- IC50 (AA): < 100 nM

SMILES: CN1C(=O)CCN(C2CCCC2)c2nc(Nc3ccc(C(N)=O)cc3)ncc21 [compound 83, 4-(9-Cyclopentyl-5-methyl-6-oxo-6,7,8,9-tetrahydro-5H-pyrimido[4,5-b][1,4]diazepin-2-ylamino)-benzamide]
- IC50 (PLK1): < 1000 nM
- IC50 (AA): < 100 nM

SMILES: CN1C(=O)C2(CC2)CN(C2CCCC2)c2nc(Nc3ccc(C(=O)O)cc3)ncc21 [compound 84, 4-(9-Cyclopentyl-5-methyl-6-oxo-6,7,8,9-tetrahydro-5H-spiro[pyrimido[4,5-b][1,4]diazepin-3,1′-cyclopropane]-2-ylamino)-benzoic acid]
- IC50 (PLK1): < 1000 nM
- IC50 (AA): < 10000 nM

SMILES: CN(C)C(=O)c1ccc(Nc2ncc3c(n2)N(C2CCCC2)CCC(=O)N3C)cc1 [compound 85, 4-(9-Cyclopentyl-5-methyl-6-oxo-6,7,8,9-tetrahydro-5H-pyrimido[4,5-b][1,4]diazepin-2-ylamino)-N,N-dimethyl-benzamide]
- IC50 (PLK1): < 10000 nM
- IC50 (AA): < 100 nM

SMILES: CC(=O)NCc1ccc(Nc2ncc3c(n2)N(C2CCCC2)CCC(=O)N3C)cc1 [compound 86, N-[4-(9-Cyclopentyl-5-methyl-6-oxo-6,7,8,9-tetrahydro-5H-pyrimido[4,5-b][1,4]diazepin-2-ylamino)-benzyl]-acetamide]
- IC50 (PLK1): < 10000 nM
- IC50 (AA): < 100 nM

SMILES: CNC(=O)c1ccc(Nc2ncc3c(n2)N(C2CCCC2)CCC(=O)N3C)c(OC)c1 [compound 87, 4-(9-Cyclopentyl-5-methyl-6-oxo-6,7,8,9-tetrahydro-5H-pyrimido[4,5-b][1,4]diazepin-2-ylamino)-3-methoxy-N-methyl-benzamide]
- IC50 (PLK1): < 100 nM
- IC50 (AA): < 10000 nM

SMILES: COc1cc(C(=O)N(C)C)ccc1Nc1ncc2c(n1)N(C1CCCC1)CCC(=O)N2C [compound 88, 4-(9-Cyclopentyl-5-methyl-6-oxo-6,7,8,9-tetrahydro-5H-pyrimido[4,5-b][1,4]diazepin-2-ylamino)-3-methoxy-N,N-dimethyl-benzamide]
- IC50 (PLK1): < 1000 nM
- IC50 (AA): < 10000 nM

SMILES: COc1cc(C(N)=O)ccc1Nc1ncc2c(n1)N(C1CCCC1)CCC(=O)N2C [compound 89, 4-(9-Cyclopentyl-5-methyl-6-oxo-6,7,8,9-tetrahydro-5H-pyrimido[4,5-b][1,4]diazepin-2-ylamino)-3-methoxy-benzamide]
- IC50 (PLK1): < 100 nM
- IC50 (AA): < 10000 nM

SMILES: CC(=O)NCc1cccc(Nc2ncc3c(n2)N(C2CCCC2)CCC(=O)N3C)c1 [compound 90, N-[3-(9-Cyclopentyl-5-methyl-6-oxo-6,7,8,9-tetrahydro-5H-pyrimido[4,5-b][1,4]diazepin-2-ylamino)-benzyl]-acetamide]
- IC50 (PLK1): < 10000 nM
- IC50 (AA): < 1000 nM

SMILES: CN1C(=O)CCN(C2CCCC2)c2nc(Nc3cccc(CN)c3)ncc21 [compound 91, 2-(3-Aminomethyl-phenylamino)-9-cyclopentyl-5-methyl-5,7,8,9-tetrahydro-pyrimido[4,5-b][1,4]diazepin-6-one]
- IC50 (PLK1): < 10000 nM
- IC50 (AA): < 1000 nM

SMILES: CN1C(=O)CCN(C2CCCC2)c2nc(Nc3ccc(S(=O)(=O)NCc4ccccc4)cc3)ncc21 [compound 93, N-Benzyl-4-(9-cyclopentyl-5-methyl-6-oxo-6,7,8,9-tetrahydro-5H-pyrimido[4,5-b][1,4]diazepin-2-ylamino)-benzenesulfonamide]
- IC50 (PLK1): < 10000 nM
- IC50 (AA): < 100 nM

SMILES: CNS(=O)(=O)c1ccc(Nc2ncc3c(n2)N(C2CCCC2)CCC(=O)N3C)cc1 [compound 96, 4-(9-Cyclopentyl-5-methyl-6-oxo-6,7,8,9-tetrahydro-5H-pyrimido[4,5-b][1,4]diazepin-2-ylamino)-N-methyl-benzenesulfonamide]
- IC50 (PLK1): < 10000 nM
- IC50 (AA): < 100 nM

SMILES: CC(=O)N(C)S(=O)(=O)c1ccc(Nc2ncc3c(n2)N(C2CCCC2)CCC(=O)N3C)cc1 [compound 97, N-Acetyl-4-(9-cyclopentyl-5-methyl-6-oxo-6,7,8,9-tetrahydro-5H-pyrimido[4,5-b][1,4]diazepin-2-ylamino)-N-methyl-benzenesulfonamide]
- IC50 (PLK1): < 10000 nM
- IC50 (AA): < 100 nM

SMILES: CN1CCC(NS(=O)(=O)c2cccc(Nc3ncc4c(n3)N(C3CCCC3)CCC(=O)N4C)c2)CC1 [compound 103, 3-(9-Cyclopentyl-5-methyl-6-oxo-6,7,8,9-tetrahydro-5H-pyrimido[4,5-b][1,4]diazepin-2-ylamino)-N-(1-methyl-piperidin-4-yl)-benzenesulfonamide]
- IC50 (PLK1): < 10000 nM
- IC50 (AA): < 1000 nM

SMILES: COCCNS(=O)(=O)c1ccc(Nc2ncc3c(n2)N(C2CCCC2)CCC(=O)N3C)cc1 [compound 104, 4-(9-Cyclopentyl-5-methyl-6-oxo-6,7,8,9-tetrahydro-5H-pyrimido[4,5-b][1,4]diazepin-2-ylamino)-N-(2-methoxy-ethyl)-benzenesulfonamide]
- IC50 (PLK1): < 10000 nM
- IC50 (AA): < 100 nM

SMILES: COCCNS(=O)(=O)c1cccc(Nc2ncc3c(n2)N(C2CCCC2)CCC(=O)N3C)c1 [compound 108, 3-(9-Cyclopentyl-5-methyl-6-oxo-6,7,8,9-tetrahydro-5H-pyrimido[4,5-b][1,4]diazepin-2-ylamino)-N-(2-methoxy-ethyl)-benzenesulfonamide]
- IC50 (PLK1): < 10000 nM
- IC50 (AA): < 1000 nM

SMILES: CN1C(=O)CCN(C2CCCC2)c2nc(Nc3cccc(S(=O)(=O)N4CCCC4)c3)ncc21 [compound 109, 9-Cyclopentyl-5-methyl-2-[3-(pyrrolidine-1-sulfonyl)-phenylamino]-5,7,8,9-tetrahydro-pyrimido[4,5-b][1,4]diazepin-6-one]
- IC50 (PLK1): < 1000 nM
- IC50 (AA): < 1000 nM

SMILES: CN1C(=O)CCN(C2CCCC2)c2nc(Nc3cccc(S(=O)(=O)NCc4ccccc4)c3)ncc21 [compound 110, N-Benzyl-3-(9-cyclopentyl-5-methyl-6-oxo-6,7,8,9-tetrahydro-5H-pyrimido[4,5-b][1,4]diazepin-2-ylamino)-benzenesulfonamide]
- IC50 (PLK1): < 10000 nM
- IC50 (AA): < 1000 nM

SMILES: CC(C)N1CCC(=O)N(C)c2cnc(Nc3ccc4c(c3)CS(=O)(=O)C4)nc21 [compound 115, 2-(2,2-Dioxo-2,3-dihydro-1H-2lambda*6*- benzo[c]thiophen-5-ylamino)-9-isopropyl-5-methyl-5,7,8,9-tetrahydro-pyrimido[4,5-b][1,4]diazepin-6-one]
- IC50 (PLK1): < 10000 nM
- IC50 (AA): < 100 nM

SMILES: CN1C(=O)C2(CCC2)CN(C2CCCC2)c2nc(Nc3ccc4c(c3)CS(=O)(=O)C4)ncc21 [compound 117, (9-Cyclopentyl-2-(2,2-dioxo-2,3-dihydro-1H-2lambda*6*-benzo[c]thiophen-5-ylamino)5-methyl-6-oxo-6,7,8,9-tetrahydro-5H-spiro[pyrimido[4,5-b][1,4]diazepin-3,1′-cyclobutane+]
- IC50 (PLK1): < 1000 nM
- IC50 (AA): < 1000 nM

SMILES: C=CCN1CCC(=O)N(C)c2cnc(Nc3ccc4c(c3)CS(=O)(=O)C4)nc21 [compound 119, 9-Allyl-2-(2,2-dioxo-2,3-dihydro-1H-2lambda*6*-benzo[c]thiophen-5-ylamino)-5-methyl-5,7,8,9-tetrahydro-pyrimido[4,5-b][1,4]diazepin-6-one]
- IC50 (PLK1): < 10000 nM
- IC50 (AA): < 100 nM

SMILES: CN1C(=O)CCN(C2CCCC2)c2nc(Nc3ccc(Cl)cc3)ncc21 [compound 123, 2-(4-Chloro-phenylamino)-9-cyclopentyl-5-methyl-5,7,8,9-tetrahydro-pyrimido[4,5-b][1,4]diazepin-6-one]
- IC50 (PLK1): < 1000 nM
- IC50 (AA): < 1000 nM

SMILES: CN1C(=O)CCN(C2CCCC2)c2nc(NCc3ccco3)ncc21 [compound 124, 9-Cyclopentyl-2-[(furan-2-ylmethyl)-amino]-5-methyl-5,7,8,9-tetrahydro-pyrimido[4,5-b][1,4]diazepin-6-one]
- IC50 (PLK1): < 10000 nM
- IC50 (AA): < 10000 nM
